The record followed here is patent publication US8071760B2, “Boron-containing porphyrin compounds and their uses” (Board of Supervisors of Louisiana State University and …, priority 2005, dated 2011).

Entries after “also recorded” stand apart in the source; their conditions may differ. Marks after values point to notes of the source that are not given here.

Series [1] is described as follows: solubility in solvents and water. The format is physicochemical. The source says: Compound 18 was converted to the water-soluble TBP Compound 19 with tert-butylammonium fluoride in THF, followed by cation exchange.
The test system of series [2] is Human HEp2 cells. The experiment in a line: Intracellular localization (fluorescence microscopy, Lysosensor co-localization). The format is cell-based. The settings on record: 50 μM, 24 h incubation, fluorescence pattern and overlay with Lysosensor; listed as TBP 19. As for the experimental part:
(§1) Human glioblastoma T98G cells and cervical carcinoma HEp2 cells were obtained from ATCC. Both cell lines were maintained in 50% α-MEM/advanced MEM, supplemented with 5% fetal bovine serum. Phosphate buffered saline (PBS), fetal bovine serum, and trypsin were purchased from Gibco; Cyquant reagent and Lysosensor were purchased from Molecular Probes, and Triton X-100 was purchased from Calbiochem. Microscopy was performed on a Zeiss Axiovert 200M inverted fluorescence microscope fitted with standard Texas Red and FITC filter sets (Chroma Technology Corp.). Images were acquired with a Zeiss Axiocam MRM CCD camera fitted to the microscope, and were pseudo-colored with Adobe Photoshop® CS version 8.0. Compounds 19 and 20 were dissolved in DMSO (Sigma-Aldrich) prior to being diluted into cell medium so that the final DMSO concentration never exceeded 1%. All medium solutions were filter-sterilized ([…] pore size) prior to use. All data obtained in the FLUOstar plate reader was analyzed using Prism 3.0 graphing software.
Human HEp2 cells were sub-cultured on Lab-Tek II chamber cover slips with α-MEM/advanced medium for 48 h. TBP 5 was added to each chamber to reach a final concentration of 50 μM. […] New medium containing 50 mM HEPES pH 7.4 was added, and the cells were examined immediately by fluorescence microscopy. […]

The subject of series [3] is human glioblastoma T98G cells. The experiment in a line: Time-dependent cellular uptake. In kind it is cell-based. The conditions noted are these: 10 μM, FIG. 12. On the procedure: as §1
Human T98G cells were sub-cultured and incubated for 48 h as otherwise described above. A filter-sterilized, 10 μM stock solution of TBP 19 in 1% DMSO/medium was added, and the cells were incubated for 24, 16, 8, 4, 2, 1, 0.5 and 0 h. […] Known and unknown concentrations of TBP 19 were determined as described above for the concentration-dependent uptake. […]

For series [4], the system named is human glioblastoma T98G cells. The experiment in a line: Concentration-dependent cellular uptake. In kind it is cell-based. The conditions noted are these: for dependence of uptake on concentration: up to 200 μM. On the procedure:
as §1, with “Compounds 19 and 20 were dissolved in DMSO (Sigma-Aldrich) prior to being diluted into cell medium so that the final DMSO concentration never exceeded 1%.” left out
Human T98G cells were sub-cultured on 96-well plates at 10,000 cells/100 μL α-MEM/advanced medium per well, and were incubated for 48 h. […] A standard curve for different cell numbers was obtained by placing 100,000, 80,000, 60,000, 40,000, 20,000, 10,000, and 0 cells in the wells, followed by incubation for 3 h. A standard graph was prepared from the wells with known cell numbers. Unknown cell numbers from the experiments were determined by first adding 100 μL/well of 5 μM stock solution of Cyquant reagent in PBS, and then reading the plate on a FLUOstar plate reader using 480 nm excitation and 520 emission filters. The same procedure was followed for determining the concentration-dependent cellular uptake of porphyrin 20, but using 570 nm excitation and 650 nm emission filters.

In series [5] the test system is BALB/c mice. Kind of series: Animal toxicity (clinical signs, serum chemistry, histopathology). In kind it is in vivo. The settings on record: for AP / Albumin / BUN / Bilirubin / Globulin / Glucose / Total Prot. / ALT / AST: serum, blood 48 h after administration, group mean; for ALT / AST: in U/L (unit assumed). As for the experimental part:
Twelve groups of two BALB/c mice each, 4-6 weeks of age and weighing 12-24 g (mean=19 g), were used for toxicity studies. There were 8 female and 16 male mice. Mice in groups 1, 3, 5, 7, and 9 were administered TBP 19 once via i.p. injection, at increasing dosages: group 1 (20 mg/kg of a 2 mg/ml solution), group 3 (40 mg/kg of a 2 mg/ml solution), group 5 (80 mg/kg of a 4 mg/ml solution), group 7 (120 mg/kg of a 4 mg/ml solution), and group 9 (160 mg/kg of a 4 mg/ml solution). Mice in groups 2, 4, 6, 8, and 10 were administered porphyrin 20 once via i.p. injection at increasing dosages: group 2 (20 mg/kg of a 2 mg/ml solution), group 4 (40 mg/kg of a 2 mg/ml solution), group 6 (80 mg/kg of a 4 mg/ml solution), group 8 (120 mg/kg of a 4 mg/ml solution), and group 10 (160 mg/kg of a 4 mg/ml solution). Two groups of mice served as vehicle controls. Mice in group 11 received sterile 4% Cremophor EL (Fluka) in PBS and served as controls for mice receiving 20, 40, and 80 mg/kg compound; while mice in group 12 received 6% Cremophor EL and served as controls for mice receiving 120 and 160 mg/kg compound.
For each compound, groups were dosed sequentially and each group was evaluated daily for signs of toxicity, including hunched posture, rough hair coat, and decreased responsiveness. Mice were anesthetized with CO2 48 h after compound administration, and blood was collected by cardiocentesis for clinical chemistry evaluation. Serum chemistry was analyzed, including glucose, aspartate aminotransferase (AST), alanine aminotransferase (ALT), alkaline phosphatase (AP), bilirubin, total protein (TP), albumin, globulin, and blood urea nitrogen (BUN). The mice were exsanguinated and necropsies were performed. Tissues, including lung, kidney, thymus, heart, Harderian gland, spleen, stomach, small intestine and colon were fixed in 10% neutral buffered formalin. The fixed tissues were processed and examined by a board-certified pathologist.

Where [6] appears, read: T98G cells, 3 h exposure, FIG. 11.
Where [7] appears, read: BALB/c mice, 20 mg/kg single i.p. injection.
Where [8] appears, read: BALB/c mice, 40 mg/kg single i.p. injection.
Where [9] appears, read: BALB/c mice, 80 mg/kg single i.p. injection.
Where [10] appears, read: BALB/c mice, 120 mg/kg single i.p. injection.
Setting [11] is: BALB/c mice, 160 mg/kg single i.p. injection.

Consider “5,10,15,20-Tetra(4′-cobaltacarborane 4-hydroxyphenyl)porphyrin [Compound 13]”, for which, in series [1], the solubility in methanol entry is listed as “soluble”.
Regarding “5,10,15,20-Tetra[4-(o-carboranyl)phenyl-tetrabenzoporphyrin [Compound 18]”, in series [1] (such as dichloromethane and acetone), the “solubility in organic solvents” value is “soluble”.
For “5,10,15,20-Tetra[4-(nido-carboranyl)phenyl-tetrabenzoporphyrin [Compound 19]”, the “solubility in polar organic solvents” value in series [1] (such as acetone, methanol and DMSO) is on record as “highly soluble”. Also, in series [1] (water), the solubility in water entry is “slightly soluble”. In addition, the “site of intracellular localization” value in series [2] is “localization in the cellular lysosomes”. Further, the “amount within T98G cells relative to Compound 20” value in series [3] (after 24 h) is recorded as “approximately 3 times”. The “time-dependent uptake compared with porphyrin 20” value in series [3] (all times 0-24 h) is “taken up faster and to a greater extent”. In series [4] (setting [6]), the “concentration accumulated within cells, higher than porphyrin 20” value is reported as “approximately 30%” and the “dependence of uptake on concentration” value is listed as “increased with increasing concentration, in an almost linear fashion”. The “uptake in T98G cells in comparison with carboranylporphyrin 20” value in series [4] (in vitro, in words) is “significantly higher uptake”. Besides, the “toxicity to BALB/c mice” value in series [5] (160 mg/kg, single i.p. injection, 4 mg/mL, listed as TBP 19) is listed as “non-toxicity; also recorded: non-toxic”. Further, in series [5] (BALB/c mice, 20-160 mg/kg single i.p. injection, daily evaluation), the signs of toxicity entry was “No signs of toxicity”. In series [5] (BALB/c mice, i.p., maximum 160 mg/kg), the “serum chemistry changes attributable to compound” value is “No serum chemistry changes were observed”. Moreover, the “clinical, biochemical, or histopathological effects attributable to administration” value in series [5] (BALB/c mice, single i.p. injection up to 160 mg/kg) was “No clinical, biochemical, or histopathological effects were observed”. In series [5] (mice, preliminary results), the “toxicity compared with other negatively charged carboranyl-containing porphyrins (BOPP, MnBOPP, BTPP, NiNTCP-H, ZnDPE, NiDPE)” value is listed as “significantly less toxic”. In addition, in series [5] (setting [7]), the AP is recorded as 189.5^a,c, the Albumin was 2.85 g/dL, the BUN was found to be 28 mg/dL and the Bilirubin was 0.15 mg/dL. Besides, in series [5] (setting [7]), the Globulin is 1.8^a, the Glucose is given as 153.5^a, the Total Prot. was 4.65 g/dL and the ALT stood at 151.5. The substance further returned an AST in series [5] (setting [7]) of 177.5. Also, in series [5] (setting [8]), the AP was 201.0^b,c, the Albumin was 2.8 g/dL, the BUN turned out to be 27 mg/dL and the Bilirubin was found to be 0.2 mg/dL. Moreover, in series [5] (setting [8]), the Globulin is on record as 1.9^a, the Glucose is on record as 219.5^c, the Total Prot. stood at 4.7 g/dL and the ALT amounted to 96.5. The substance also displayed an AST in series [5] (setting [8]) of 455.5. Besides, in series [5] (setting [9]), the AP is recorded as 138.0^a, the Albumin turned out to be 2.75 g/dL, the BUN came out at 25.5 mg/dL and the Bilirubin amounted to 0.2 mg/dL. In addition, in series [5] (setting [9]), the Globulin is 2.35^b, the Glucose is 229.5^c, the Total Prot. is 5.1 g/dL and the ALT was determined as 120.0. In addition, the AST in series [5] (setting [9]) was determined as 454.5. Also, in series [5] (setting [10]), the AP was 161.0^a, the Albumin is given as 2.75^a, the BUN was 15.5^a,b and the Bilirubin is 0.2 mg/dL. In addition, in series [5] (setting [10]), the Globulin is on record as 2.35^a, the “Total Prot.” value is reported as 5.1^a, the ALT turned out to be 29.0 and the AST was found to be 73.0. Also, the Glucose in series [5] (BALB/c mice, 120 mg/kg single i.p. injection, in mg/dL (unit assumed)) was determined as 224.5. Moreover, in series [5] (setting [11]), the AP is 223.5^b, the BUN is given as 22.5^b,c, the Bilirubin worked out at 0.25 mg/dL and the Globulin is on record as 1.95^b. Moreover, in series [5] (setting [11]), the “Total Prot.” value is on record as 4.35^b, the ALT amounted to 206.0 and the AST stood at 498.0. Also, in series [5] (BALB/c mice, 160 mg/kg single i.p. injection, 160 mg/kg), the Albumin result is listed as “lower than for other mice”. This substance showed a Glucose in series [5] (BALB/c mice, 160 mg/kg single i.p. injection, in mg/dL (unit assumed)) of 172.0. Also, the Albumin in series [5] (BALB/c mice, 160 mg/kg single i.p. injection, listed as TBP 5, 160 mg/kg) was 2.4^b.
For the substance “tetra(nido-carboranylphenyl)porphyrin [Compound 20, reference compound]”, the “dependence of uptake on concentration” value in series [4] (setting [6]) was “increased with increasing concentration, in an almost linear fashion”.
In the case of “5,10,15,20-Tetra(4′-cobaltacarboranepyridyl)porphyrin [Compound 5]”, in series [1] (acetone, ethyl acetate, acetonitrile, DMF, and DMSO), the “solubility in polar organic solvents” value is listed as “highly soluble”. Also, in series [1], the solubility in methanol entry is reported as “not”.
